Data as given in patent US9783534B2 (priority 2013, dated 2017).
Where two headings read alike, the source gives them in different places.

What was measured:
Phytophthora infestans = type: in vivo; details: tomato, protective, 50 g a.i./liter SC formulation, evaluation 3 days after inoculation
Plasmopara viticola = experiment: Plasmopara test (vine)/protective; type: in vivo; details: protective, 50 g a.i./liter SC formulation, evaluation 6 days after inoculation
Excerpt: To produce a suitable active ingredient preparation, formulations are suspended with water and diluted to the desired concentration. In the present case, both the known amorphous modification of the substance 2-{3-[2-(1-{[3,5-bis(difluoromethyl)-1H-pyrazol-1-yl]acetyl}piperidin-4-yl)-1,3-thiazol-4-yl]-4,5-dihydro-1,2-oxazol-5-yl}-3-chlorophenylmethanesulphonate (form A), as well as the inventive crystalline form of the substance 2-{3-[2-(1-{[3,5-bis(difluoromethyl)-1H-pyrazol-1-yl]acetyl}piperidin-4-yl)-1,3-thiazol-4-yl]-4,5-dihydro-1,2-oxazol-5-yl}-3-chlorophenylmethanesulphonate (form B) are used as 50 g a.i./liter of SC formulation.
To test for protective effectiveness, young plants are sprayed with the active ingredient preparation at the stated application rate. After initial drying of the spray coating, the plants are inoculated with an aqueous spore suspension of Plasmopara viticola and then remain in an incubation cabin for 1 day at approx. 20° C. and 100% relative atmospheric humidity. The plants are then placed in a greenhouse at approx. 21° C. and approx. 90% atmospheric humidity for 4 days. The plants are then moistened and placed in an incubation cabin for 1 day.
Evaluation is carried out 6 days after the inoculation. 0% here means an efficacy which corresponds to that of the control, whereas an efficacy of 100% means that no infection is observed.

[1] = Stability of the solid form on storage; type: physicochemical; details: prolonged storage
[2] = application rate 0.05 ppm active ingredient
[3] = application rate 0.1 ppm active ingredient
[4] = application rate 0.2 ppm active ingredient

Row | SMILES | Efficacy in % (Phytophthora infestans; [2]) [%] | Efficacy in % (Phytophthora infestans; [3]) [%] | Efficacy in % (Phytophthora infestans; [4]) [%] | Efficacy in % (Plasmopara viticola; [2]) [%] | Efficacy in % (Plasmopara viticola; [3]) [%] | Efficacy in % (Plasmopara viticola; [4]) [%] | thermodynamic stability / conversion into another form [1]
1 | CS(=O)(=O)Oc1cccc(Cl)c1C1CC(c2csc(C3CCN(C(=O)Cn4nc(C(F)F)cc4C(F)F)CC3)n2)=NO1 (single isomer, unassigned) [Form A, 2-{3-[2-(1-{[3,5-bis(difluoromethyl)-1H-pyrazol-1-yl]acetyl}piperidin-4-yl)-1,3-thiazol-4-yl]-4,5-dihydro-1,2-oxazol-5-yl}-3-chlorophenylmethanesulphonate, reference compound] | 0 | 15 | 40 | 0 | 6 | 35 | 
2 | CS(=O)(=O)Oc1cccc(Cl)c1C1CC(c2csc(C3CCN(C(=O)Cn4nc(C(F)F)cc4C(F)F)CC3)n2)=NO1 (single isomer, unassigned) [Form B, 2-{3-[2-(1-{[3,5-bis(difluoromethyl)-1H-pyrazol-1-yl]acetyl}piperidin-4-yl)-1,3-thiazol-4-yl]-4,5-dihydro-1,2-oxazol-5-yl}-3-chlorophenylmethanesulphonate] | 40 | 60 | 76 | 0 | 35 | 75 | not converted into another form even on prolonged storage
